Test results taken from patent US9321751B2, “Piperine derivatives and uses thereof” (INDUSTRY-ACADEMIC COOPERATION FOUNDATION, YONSEI UNIVERSITY, priority 2012, dated 2016).

Assays:
[1] = test system: 3T3-L1 cells as preadipocytes; test: Inhibition of adipocyte differentiation, Oil-Red O staining; format: cell-based, Mouse; conditions: treated every other day from day 0 of differentiation, 14 days culture, different concentrations
Description: Mouse adipocyte line (3T3-L1) was used to evaluate effects of various piperine-based compounds on adipocyte differentiation and growth. 3T3-L1 cells as preadipocytes were dispensed on a 12-well plate, and cultured in a 5% CO2 incubator using DMEM medium supplemented with 1% penicillin-streptomycin, 1% non-essential amino acids, and 10% FBS. The cultured 3T3-L1 cells were made into differentiated adipocytes by being cultured for […] in a medium containing 0.5 mM […], 1 μM dexamethasone (MDI), and 1 μg/mL insulin, and then differentiated into mature adipocytes by being further cultured in a medium 1 μg/mL insulin. After that, they were further cultured for 10 days while changing the DMEM culture liquid every other day to obtain fully differentiated adipocytes.
The culture liquid was treated with 13 new compounds with different concentrations every other day from day 0 when DMI was added to the 3T3-L1 cells for differentiation. Derivative compounds were dissolved in DMSO before the use thereof, and a negative control group added with only DMSO was included in the experiment.
After the culturing for a total of 14 days, the culture liquids were removed when the cells were fully differentiated, and fat spheres contained in the differentiated adipocytes were stained. For this, the cells were washed 2 times with phosphate buffered saline (PBS), immobilized in 10% buffered neutral formalin for 1 hour, washed again once with PBS, stained for 1 hour by adding 1 mL of Oil-Red-O, which specifically stains fats red, to the 12-well plate, and then washed 2 times with distilled water. In order to measure the level of triglyceride contained in the differentiated 3T3-L1 cells, the stained cells were dissolved in 1 mL of iso-butanol and the OD value was measured at 600 nm.

C57BL/6J mice [2] = test: Body weight and visceral fat weight of mice fed high-fat test diets (LJ-2498 study); format: in vivo; conditions: 0.05% in high-fat diet, 10 weeks
Description: The obesity-inducing diet used in this example was high-fat diet (HFD: 40% fat calorie, 17 g lard+3% corn oil/100 g diet). LJ-2498 chemical (JL-2498) or piperine (Pin)-containing diet had the same composition as HFD, except that LJ-2498 chemical was included at 0.05%. As control drugs, metformin (Metf) as a diabetic treatment in a level of 0.1% and sibutramine as an obesity treatment in a level of 0.1% were added to a high-fat diet. A normal diet group (Chow) was fed with commercial rodent feedstuff.
(§1) 5-week-old male C57BL/6J mice (Orient, Korea) were accustomed to the laboratory environment for 1 week while feeding solid feed. Then, they were randomly divided into normal diet group, high-fat diet control group and test group of 3 types and control drug group of 2 types. They were bred for a total of 10 weeks (n=8/group). The diet was given between 10 and 11 a.m. every day together with water. Diet intake was measured every day and body weight was measured every week. In order to avoid transient body weight increase after feed intake, body weight was measured 2 hours after removing the feed. After fasting the test animal for at least 12 hours and anesthetizing with diethyl ether, blood, liver and visceral fat (epididymal fat, perirenal fat, mesenteric fat and retroperitoneal fat) were taken and weighed after washing with 0.1 M PBS (pH 7.4). Blood taken from the abdominal aorta was centrifuged at 1000×g for 15 minutes to separate the serum.

C57BL/6J mice [3] = test: Biochemical analysis of blood (plasma lipids, ALT, AST) of mice fed test diets; format: in vivo; conditions: 0.05% in high-fat diet, 10 weeks
Description: as §1
After 10 weeks of breeding, total cholesterol, triglyceride and glucose levels in the plasma and lipid levels in the liver tissue were measured as follows. Total cholesterol, triglyceride, free fatty acid and glucose levels in the plasma were measured twice for each using a commercially available kit (Bio Clinical System). The activity of ALT (alanine aminotransferase) and AST (aspartate aminotransferase) used as liver function indicator were measured twice for each using a commercially available kit (Bio Clinical System, Korea).

C57BL/6J mice [4] = test: Oral glucose tolerance test in mice fed test diets; format: in vivo; conditions: 8 weeks of diet
Description: After 8 weeks of experimental diet, the oral glucose tolerance test was performed on all groups. After 6 hours of fasting, the mice were orally administered with glucose (2 g glucose/10 ml of distilled water/kg body weight). Before the oral administration of glucose, at 15, 30, 60, and 120 min after the administration of glucose, blood samples were taken from the tail cut (by removing the distal 1 cm of the tail) and blood glucose concentrations were measured using a blood glucose monitoring device.

C57BL/6J mice [5] = test: Liver weight and lipid level in liver tissues of mice fed test diets; format: in vivo; conditions: 0.05% in high-fat diet, 10 weeks
Description: as §1
Lipids were extracted from the liver tissue according to Folch et al.'s method Folch J et al., J Biol. Chem. 226: 497-509 (1957)). After adding 1 mL of distilled water to 0.25 g of liver tissue, the liver tissue was homogenized using a Polytron homogenizer (IKA-Werke GmbH & Co., Ultra-Turrax, Staufen, Germany). After adding 5 mL of chloroform:methanol solution (2:1, v/v) to the homogenate and mixing well, the mixture was centrifuged at 1000×g for 10 minutes. After adding 2 mL of chloroform:methanol solution (2:1, v/v) again to the supernatant, the same procedure was repeated to completely separate the lipid components of the liver. After adding 3 mL of chloroform:methanl:0.05% CaCl2 (3:48:47, v/v/v) solution to the remaining pellets and mixing well for 1 minute, followed by centrifugation at 1000×g for 10 minutes, the resulting pellets were completely dried with nitrogen gas. The dried lipids were dissolved in 1 mL of methanol and then analyzed.
The same kit (Bio Clinical System) as that used for the plasma analysis was used to measure the triglyceride and cholesterol levels of the liver tissue.

C57BL/6J mice [6] = test: Body and visceral fat-pad weights of mice fed high-fat test diets (LJ-2529 study); format: in vivo; conditions: 14 weeks; for decrease of daily food intake: supplemented high-fat diet
Description: The obesity-inducing control diet used in the test was high-fat diet (HFD: 40% fat calorie, 17 g lard+3% corn oil/100 g diet). Diets supplemented with LJ-2529 compound or piperine had the same composition as HFD, except that LJ-2529 was included at 0.05%.
5-week-old male C57BL/6J mice (Orient, Korea) were accustomed to the laboratory environment for 1 week while feeding solid feed. […] The diet was given between 10 and 11 a.m. every day together with water. Food intake was measured every day and body weight was measured once a week. In order to avoid transient body weight increase after feed intake, body weight was measured 2 hours after removing the feed. After fasting the test animal for at least 12 hours and anesthetizing with diethyl ether, blood, liver and visceral fat (epididymal fat, perirenal fat, mesenteric fat and retroperitoneal fat) were taken and weighed after washing with 0.1M PBS (pH 7.4). Blood taken from the abdominal aorta was centrifuged at 1000×g for 15 minutes for the separation of plasma.

Cc1ccc(C)c(/C=C/C=C\C(=O)N2CCCCC2)c1 [LJ-2498, Cis-(2E,4E)-5-(2,5-dimethyl-phenyl)-1-(piperidin-1-yl) penta-2,4-dien-1-one]
differentiation of the preadipocytes 3T3L1 [1]: reduced the differentiation of the preadipocytes 3T3L1 in a concentration-dependent manner
epididymal fat weight per body weight as compared to HFD (C57BL/6J mice [2]): significantly lower
lower accumulated body weight gain as compared to HFD (C57BL/6J mice [2]): 23%
lower total visceral fat weight compared to HFD (C57BL/6J mice [2]): 28%
mesenteric fat weight per body weight as compared to HFD (C57BL/6J mice [2]): significantly lower
perirenal fat weight per body weight as compared to HFD (C57BL/6J mice [2]): significantly lower
retroperitoneal fat weight per body weight as compared to HFD (C57BL/6J mice [2]): significantly lower
visceral fat weight as compared to HFD group (C57BL/6J mice [2]): significantly lower
decreased plasma activity of ALT as compared to HFD (C57BL/6J mice [3]): 27%
decreased plasma activity of AST as compared to HFD (C57BL/6J mice [3]): 15%
lower plasma level of free fatty acid as compared to HFD (C57BL/6J mice [3]): 25%
lower plasma level of total cholesterol as compared to HFD (C57BL/6J mice [3]): 20%
lower plasma level of triglyceride as compared to HFD (C57BL/6J mice [3]): 21%
insulin resistance improving effect versus control drugs metformin and sibutramine (C57BL/6J mice [4]): more excellent than those of control drugs
blood glucose concentration after oral glucose as compared with HFD (C57BL/6J mice [4]; 2 g glucose/kg, 15, 30, 60, 120 min): further reduced over all the time zones
reduction of fasting blood glucose as compared with HFD (C57BL/6J mice [4]; 6 hours fasting): 20%
decrease of liver weight compared to HFD (C57BL/6J mice [5]): 23%
decreased level of cholesterol in liver tissue as compared to HFD (C57BL/6J mice [5]): 41%
decreased level of triglyceride in liver tissue as compared to HFD (C57BL/6J mice [5]): 29%
liver tissue appearance as compared to HFD (C57BL/6J mice [5]; images): darker and smaller liver tissue

Cc1ccc(C)c(/C=C/C=C/C(=O)N2CCCCC2)c1 [LJ-2497, Trans-(2E,4E)-5-(2,5-dimethylphenyl)-1-(piperidin-1-yl) penta-2,4-dien-1-one]
differentiation of the preadipocytes 3T3L1 [1]: reduced the differentiation of the preadipocytes 3T3L1 in a concentration-dependent manner

CC(=O)OC/C=C/c1ccc2c(c1)OCO2 [LJ-2196, (E)-3-(benzo[d][1,3]dioxo-5-yl)allyl acetate]
differentiation of the preadipocytes 3T3L1 [1]: reduced the differentiation of the preadipocytes 3T3L1 in a concentration-dependent manner

O=C(/C=C/C=C/c1ccc2c(c1)OCO2)N1CCCCC1 [piperine, Piperine]
body weight gain change (signed) versus HFD (C57BL/6J mice [6]; piperine-supplemented high-fat diet): −48%
decrease of daily food intake (C57BL/6J mice [6]): 27%

S=c1[nH]c2ccc(/N=C/c3c(Br)ccc4c3OCO4)cc2[nH]1 [SKKU-S-02]
differentiation of the preadipocytes 3T3L1 [1]: reduced the differentiation of the preadipocytes 3T3L1 in a concentration-dependent manner

COc1ccc(/C=C/C=C/C(=O)N2CCCCC2)cc1OC [LJ-2491, (2E,4E)-5-(3,4-dimethoxy-phenyl)-1-(piperidin-1-yl) penta-2,4-dien-1-one]
differentiation of the preadipocytes 3T3L1 [1]: reduced the differentiation of the preadipocytes 3T3L1 in a concentration-dependent manner

O=C(/C=C/C=C/c1ccc2c(c1)OCO2)N1CCCC1 [LJ-2487, (2E,4E)-5-(benzo[d][1,3]dioxol-5-yl)-1-(pyrrolidin-1-yl)penta-2,4-dien-1-one]
differentiation of the preadipocytes 3T3L1 [1]: reduced the differentiation of the preadipocytes 3T3L1 in a concentration-dependent manner

O=c1[nH]c2ccc(/N=C/c3c(Br)ccc4c3OCO4)cc2[nH]1 [LJ-2529]
differentiation of the preadipocytes 3T3L1 [1]: reduced the differentiation of the preadipocytes 3T3L1 in a concentration-dependent manner
decrease of FER (feed efficiency ratio) compared with HFD (C57BL/6J mice [6]; 0.05% in high-fat diet): 60%
decrease of body weight gain as compared to HFD (C57BL/6J mice [6]; 0.05% in high-fat diet): 60%
epididymal fat-pad weight as compared to HFD (C57BL/6J mice [6]; 0.05% in high-fat diet): significantly reduced
mesenteric fat-pad weight as compared to HFD (C57BL/6J mice [6]; 0.05% in high-fat diet): significantly reduced
perirenal fat-pad weight as compared to HFD (C57BL/6J mice [6]; 0.05% in high-fat diet): significantly reduced
retroperitoneal fat-pad weight as compared to HFD (C57BL/6J mice [6]; 0.05% in high-fat diet): significantly reduced
reduction of total visceral fat weight versus HFD (C57BL/6J mice [6]; 0.05% in high-fat diet, P<0.001): 15%
decrease of daily food intake (C57BL/6J mice [6]): 24%

O=c1[nH]c2ccc(/N=C/c3cc4c(cc3Br)OCO4)cc2[nH]1 [LJ-2527]
differentiation of the preadipocytes 3T3L1 [1]: reduced the differentiation of the preadipocytes 3T3L1 in a concentration-dependent manner

COc1ccc(/C=C/C=C/C(=O)N2CCCCC2)c(OC)c1 [LJ-2490, (2E,4E)-5-(2,4-dimethoxy-phenyl)-1-(piperidin-1-yl) penta-2,4-dien-1-one]
differentiation of the preadipocytes 3T3L1 [1]: reduced the differentiation of the preadipocytes 3T3L1 in a concentration-dependent manner

COc1ccc(OC)c(/C=C/C=C/C(=O)N2CCCCC2)c1 [LJ-2488, (2E,4E)-5-(2,5-dimethoxy-phenyl)-1-(piperidin-1-yl) penta-2,4-dien-1-one]
differentiation of the preadipocytes 3T3L1 [1]: reduced the differentiation of the preadipocytes 3T3L1 in a concentration-dependent manner

C(=N\c1ccccc1)/c1ccc2c(c1)OCO2 [LJ-2477, (E)-N-(benzo[d][1,3]dioxol-5-ylmethylene)aniline]
differentiation of the preadipocytes 3T3L1 [1]: reduced the differentiation of the preadipocytes 3T3L1 in a concentration-dependent manner

COc1cc(/C=C/C=C/C(=O)N2CCCCC2)cc(OC)c1 [LJ-2492, (2E,4E)-5-(3,5-dimethoxy-phenyl)-1-(piperidin-1-yl) penta-2,4-dien-1-one]
differentiation of the preadipocytes 3T3L1 [1]: reduced the differentiation of the preadipocytes 3T3L1 in a concentration-dependent manner

COc1cccc(/C=C/C=C/C(=O)N2CCCCC2)c1OC [LJ-2489, (2E,4E)-5-(2,3-dimethoxy-phenyl)-1-(piperidin-1-yl) penta-2,4-dien-1-one]
differentiation of the preadipocytes 3T3L1 [1]: reduced the differentiation of the preadipocytes 3T3L1 in a concentration-dependent manner
reduction of area under the curve (ACU) for blood glucose concentrations as compared with HFD (C57BL/6J mice [4]; 2 g glucose/kg oral): 17%
